Measured values reported in PubChem BioAssay AID1963845 (Molecular Pharmacology Branch, DTP, NCI, 2024).

Test system: 429239-143-T-J1-PDC complex spheroid viability
Assay: Anticancer human tumor 429239-143-T-J1-PDC patient-derived small cell lung carcinoma cell line growth inhibition [POLQ]
Details: for IC50: curve of first compound; for viability, T/C: stronger effect = lower value
Method in brief: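 PDC + HUVEC + MSC complex spheroids; POLQ inhibitors ± partner drugs; top conc. at/near clinical Cmax, else 10 microM (SN-38 1 microM), half-log dilutions; 37 degrees C, 5% CO2.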

[1] = second compound 0.0316 µM, first compound 0.0316 µM
[2] = second compound 0.0316 µM, first compound 0.1 µM
[3] = second compound 0.0316 µM, first compound 0.316 µM
[4] = second compound 0.0316 µM, first compound 1 µM
[5] = second compound 0.0316 µM, first compound 3.16 µM
[6] = second compound 0.0316 µM, first compound 10 µM
[7] = second compound 0.1 µM, first compound 0.0316 µM
[8] = second compound 0.1 µM, first compound 0.1 µM
[9] = second compound 0.1 µM, first compound 0.316 µM
[10] = second compound 0.1 µM, first compound 1 µM
[11] = second compound 0.1 µM, first compound 3.16 µM
[12] = second compound 0.1 µM, first compound 10 µM
[13] = second compound 0.316 µM, first compound 0.0316 µM
[14] = second compound 0.316 µM, first compound 0.1 µM
[15] = second compound 0.316 µM, first compound 0.316 µM
[16] = second compound 0.316 µM, first compound 1 µM
[17] = second compound 0.316 µM, first compound 3.16 µM
[18] = second compound 0.316 µM, first compound 10 µM
[19] = second compound 1 µM, first compound 0.0316 µM
[20] = second compound 1 µM, first compound 0.1 µM
[21] = second compound 1 µM, first compound 0.316 µM
[22] = second compound 1 µM, first compound 1 µM
[23] = second compound 1 µM, first compound 3.16 µM
[24] = second compound 1 µM, first compound 10 µM
[25] = second compound 3.16 µM, first compound 0.0316 µM
[26] = second compound 3.16 µM, first compound 0.1 µM
[27] = second compound 3.16 µM, first compound 0.316 µM
[28] = second compound 3.16 µM, first compound 1 µM
[29] = second compound 3.16 µM, first compound 3.16 µM
[30] = second compound 3.16 µM, first compound 10 µM
[31] = second compound 10 µM, first compound 0.0316 µM
[32] = second compound 10 µM, first compound 0.1 µM
[33] = second compound 10 µM, first compound 0.316 µM
[34] = second compound 10 µM, first compound 1 µM
[35] = second compound 10 µM, first compound 3.16 µM
[36] = second compound 10 µM, first compound 10 µM
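Note: luminescence signal used as surrogate measure of viable cells; spheroids exposed to compounds for seven days before readout.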
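Throughout, for viability, T/C: 100% = DMSO vehicle control viability as luminescence relative to vehicle.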

Question: What does the source list for CC1COCCN1c1cc(C2(O)CC3CCC(C2)O3)c2cnn(-c3ccn[nH]3)c2n1 (stereo unspecified) + Nc1ccc(C#CCN(C(=O)Cc2ncc(C(F)(F)F)cc2C(F)(F)F)c2ccc(F)cc2)nn1?
Answer: IC50 (second compound 0.0316 µM): 0.273 µM; IC50 (second compound 0.1 µM): 0.251 µM; IC50 (second compound 0.316 µM): 0.269 µM; IC50 (second compound 1 µM): 0.263 µM; IC50 (second compound 3.16 µM): 0.232 µM; IC50 (second compound 10 µM): 0.187 µM; viability, T/C [1]: 84.1%; viability, T/C [2]: 72%; viability, T/C [3]: 48.2%; viability, T/C [4]: 7.65%; viability, T/C [5]: 3.72%; viability, T/C [6]: 2.1%; viability, T/C [7]: 83.8%; viability, T/C [8]: 70.5%; viability, T/C [9]: 46.3%; viability, T/C [10]: 7.55%; viability, T/C [11]: 3.33%; viability, T/C [12]: 2.36%; viability, T/C [13]: 83.9%; viability, T/C [14]: 71.3%; viability, T/C [15]: 47.9%; viability, T/C [16]: 7.06%; viability, T/C [17]: 3.37%; viability, T/C [18]: 2.33%; viability, T/C [19]: 78.9%; viability, T/C [20]: 69.5%; viability, T/C [21]: 46.8%; viability, T/C [22]: 6.97%; viability, T/C [23]: 3.6%; viability, T/C [24]: 2.11%; viability, T/C [25]: 81.1%; viability, T/C [26]: 70.4%; viability, T/C [27]: 43.1%; viability, T/C [28]: 7.77%; viability, T/C [29]: 3.26%; viability, T/C [30]: 2.52%; viability, T/C [31]: 83.4%; viability, T/C [32]: 66.9%; viability, T/C [33]: 36.4%; viability, T/C [34]: 6.28%; viability, T/C [35]: 3.88%; viability, T/C [36]: 2.51%

Question: Which IC50 (second compound 0.0316 µM) does the source give for Cn1ncnc1[C@H]1c2n[nH]c(=O)c3cc(F)cc(c23)N[C@@H]1c1ccc(F)cc1 + Nc1ccc(C#CCN(C(=O)Cc2ncc(C(F)(F)F)cc2C(F)(F)F)c2ccc(F)cc2)nn1 here?
Answer: > 0.1 µM

Question: And the IC50 (second compound 0.1 µM)?
Answer: > 0.1 µM

Question: And the IC50 (second compound 0.316 µM)?
Answer: > 0.1 µM

Question: What about the IC50 (second compound 1 µM) of the same molecule?
Answer: > 0.1 µM

Question: What about the IC50 (second compound 3.16 µM) of the same molecule?
Answer: > 0.1 µM

Question: And the IC50 (second compound 10 µM)?
Answer: > 0.1 µM

Question: What about the viability, T/C (second compound 0.0316 µM, first compound 0.000316 µM) of the same molecule?
Answer: 101%

Question: And the viability, T/C (second compound 0.0316 µM, first compound 0.001 µM)?
Answer: 104%

Question: What about the viability, T/C (second compound 0.0316 µM, first compound 0.00316 µM) of the same molecule?
Answer: 89.8%

Question: And the viability, T/C (second compound 0.0316 µM, first compound 0.01 µM)?
Answer: 83.4%

Question: What about the viability, T/C [1] of the same molecule?
Answer: 83.1%

Question: What about the viability, T/C [2] of the same molecule?
Answer: 60.8%

Question: And the viability, T/C (second compound 0.1 µM, first compound 0.000316 µM)?
Answer: 101%

Question: What about the viability, T/C (second compound 0.1 µM, first compound 0.001 µM) of the same molecule?
Answer: 104%

Question: What about the viability, T/C (second compound 0.1 µM, first compound 0.00316 µM) of the same molecule?
Answer: 95.3%

Question: What about the viability, T/C (second compound 0.1 µM, first compound 0.01 µM) of the same molecule?
Answer: 83.1%

Question: And the viability, T/C [7]?
Answer: 84.7%

Question: What about the viability, T/C [8] of the same molecule?
Answer: 60.4%

Question: And the viability, T/C (second compound 0.316 µM, first compound 0.000316 µM)?
Answer: 104%

Question: And the viability, T/C (second compound 0.316 µM, first compound 0.001 µM)?
Answer: 101%

Question: What about the viability, T/C (second compound 0.316 µM, first compound 0.00316 µM) of the same molecule?
Answer: 93.7%

Question: And the viability, T/C (second compound 0.316 µM, first compound 0.01 µM)?
Answer: 83.8%

Question: What about the viability, T/C [13] of the same molecule?
Answer: 79.8%

Question: What about the viability, T/C [14] of the same molecule?
Answer: 67.1%

Question: What about the viability, T/C (second compound 1 µM, first compound 0.000316 µM) of the same molecule?
Answer: 111%

Question: What about the viability, T/C (second compound 1 µM, first compound 0.001 µM) of the same molecule?
Answer: 112%

Question: What about the viability, T/C (second compound 1 µM, first compound 0.00316 µM) of the same molecule?
Answer: 95.1%

Question: What about the viability, T/C (second compound 1 µM, first compound 0.01 µM) of the same molecule?
Answer: 87.8%

Question: What about the viability, T/C [19] of the same molecule?
Answer: 81.7%

Question: And the viability, T/C [20]?
Answer: 58%

Question: What about the viability, T/C (second compound 3.16 µM, first compound 0.000316 µM) of the same molecule?
Answer: 106%

Question: And the viability, T/C (second compound 3.16 µM, first compound 0.001 µM)?
Answer: 91.4%

Question: And the viability, T/C (second compound 3.16 µM, first compound 0.00316 µM)?
Answer: 94.2%

Question: And the viability, T/C (second compound 3.16 µM, first compound 0.01 µM)?
Answer: 95.2%

Question: What about the viability, T/C [25] of the same molecule?
Answer: 75.8%

Question: And the viability, T/C [26]?
Answer: 69.8%

Question: What about the viability, T/C (second compound 10 µM, first compound 0.000316 µM) of the same molecule?
Answer: 108%

Question: What about the viability, T/C (second compound 10 µM, first compound 0.001 µM) of the same molecule?
Answer: 91.7%

Question: What about the viability, T/C (second compound 10 µM, first compound 0.00316 µM) of the same molecule?
Answer: 101%

Question: And the viability, T/C (second compound 10 µM, first compound 0.01 µM)?
Answer: 87.9%

Question: And the viability, T/C [31]?
Answer: 74.2%

Question: What about the viability, T/C [32] of the same molecule?
Answer: 60.2%

Question: What does the source list for C=CC(=O)N1CCN(c2nc(=O)n(-c3c(C)ccnc3C(C)C)c3nc(-c4c(O)cccc4F)c(F)cc23)C(C)C1 (stereo unspecified) + Nc1ccc(C#CCN(C(=O)Cc2ncc(C(F)(F)F)cc2C(F)(F)F)c2ccc(F)cc2)nn1?
Answer: IC50 (second compound 0.0316 µM): > 10 µM; IC50 (second compound 0.1 µM): > 10 µM; IC50 (second compound 0.316 µM): > 10 µM; IC50 (second compound 1 µM): > 10 µM; IC50 (second compound 3.16 µM): > 10 µM; IC50 (second compound 10 µM): > 10 µM; viability, T/C [1]: 101%; viability, T/C [2]: 97.2%; viability, T/C [3]: 97.2%; viability, T/C [4]: 114%; viability, T/C [5]: 108%; viability, T/C [6]: 93.8%; viability, T/C [7]: 97.7%; viability, T/C [8]: 113%; viability, T/C [9]: 108%; viability, T/C [10]: 114%; viability, T/C [11]: 102%; viability, T/C [12]: 96.8%; viability, T/C [13]: 108%; viability, T/C [14]: 97.6%; viability, T/C [15]: 99.6%; viability, T/C [16]: 103%; viability, T/C [17]: 109%; viability, T/C [18]: 94.1%; viability, T/C [19]: 98.9%; viability, T/C [20]: 103%; viability, T/C [21]: 99.3%; viability, T/C [22]: 112%; viability, T/C [23]: 98.4%; viability, T/C [24]: 91.8%; viability, T/C [25]: 107%; viability, T/C [26]: 105%; viability, T/C [27]: 109%; viability, T/C [28]: 115%; viability, T/C [29]: 104%; viability, T/C [30]: 97.3%; viability, T/C [31]: 104%; viability, T/C [32]: 98.8%; viability, T/C [33]: 111%; viability, T/C [34]: 108%; viability, T/C [35]: 95.7%; viability, T/C [36]: 96.8%
